In publication PMC4644980, “The FDA-approved natural product dihydroergocristine reduces the production of the Alzheimer’s disease amyloid-β peptides” (Scientific Reports, 2015):
Where a name gives a salt, the structure may show the parent alone. Where a SMILES comes first, the peptide text is derived from it. The star is where a group is joined. Pyrrolidide = C1CCN(*)C1

Assays:
[1] = test system: hAPP cleavage by γ-secretase; assay: cleavage of APP-CTFs in HEK293 cells overexpressing hAPP; format: cell-based, human; conditions: 20 or 50 μM
purified γ-secretase = target: T1, purified γ-secretase (Homo sapiens, UniProt P49768+Q92542); assay: cell-free in vitro C100-Flag γ-secretase assay with purified enzyme; format: biochemical; conditions: for The potency of compound (in vitro C100 γ-secretase assay): 200 µM, compared with DHEC, estimated by densitometry; for inhibition of γ-secretase activity (C100-Flag cleavage): 200 μM; for inhibition of γ-secretase activity (C100-Flag cleavage) / IC50: purified γ-secretase; for IC50: AICD-Flag densitometry, read-out: IC50 in the in vitro γ-secretase activity assay (C100-Flag processing)
T1 construct: made in house
Description: The density of the AICD-Flag and Aβ total bands was quantified by Odyssey software (Supplementary data Fig. S5). […] The residue was then separated by Bicine/urea SDS-PAGE, together with an Aβ standard of synthetic human Aβ38, Aβ40 and Aβ42, followed by Western blot detection with anti-Aβ antibody (6E10, left panel), or quantification by ELISA (right panel). Black bars, Aβ [1–40]; gray bars, Aβ[1–42]. Data were presented as the means ± sd. […] The change in response units over time is shown. […]
γ-Secretase was purified from S-20 cells as described previously. The recombinant APP-based protein substrate of γ-secretase, namely human C100-Flag, was overexpressed in E. coli and purified by using an anti-Flag M2 resin[31]. Full length human NCT was purified as described previously (for details, see Supplementary information)[32].
Cell-free in vitro γ-secretase assays using the recombinant C100-Flag substrate and purified γ-secretase were performed as described in the Supplementary information.
Aβ1-x peptides secreted in the cell media were quantitatively measured by ELISA (IBL, Gunma, Japan) according to the standard protocol from the manufacturer. Aβ40 and Aβ42 generated in the C100-Flag γ-secretase assays stopped with 0.5% SDS (final concentration) were quantified with the human Beta Amyloid or [1–42] colorimetric ELISA kit, respectively. […]
γ-Secretase activity assays
γ-Secretase purified from S-20 cells was solubilized in 0.2% (w/v) CHAPSO in 50 mM HEPES buffer (pH 7.0) containing of 150 mM NaCl, 5 mM MgCl2 and 5 mM CaCl2, and incubated with 0.1% (w/v) PC and 1 μM or otherwise indicated […]
concentrations of substrate at 37 °C for 4 h, after which the enzymatic reactions were stopped by adding 0.5% SDS (final concentration). The samples were analyzed by Western Blot for AICD-Flag or Aβ. […]

| SMILES | cleavage of APP-CTFs / accumulation of APP-CTFs [1] | The potency of compound (in vitro C100 γ-secretase assay) (purified γ-secretase) | inhibition of γ-secretase activity (C100-Flag cleavage) (purified γ-secretase) | IC50 (purified γ-secretase) [µM] |
| --- | --- | --- | --- | --- |
| CC(C)C[C@H]1C(=O)N2CCC[C@H]2[C@]2(O)O[C@](NC(=O)[C@@H]3C=C4c5cccc6[nH]c(Br)c(c56)C[C@H]4N(C)C3)(C(C)C)C(=O)N12 [2-Bromo-α-ergocryptine, 2-bromo-α-ergocryptine methanesulfonate salt] | inactive | +++ | retained the ability to inhibit | ~50 |
| CC(=O)N[C@H](C(=O)N[C@@H](Cc1ccccc1)C(=O)N1CCCC1)C(C)C [AMBE] (Ac-Val-Phe-Pyrrolidide) |  | - | did not show any inhibitory activity |  |
| CC(C)C[C@H]1C(=O)N2CCC[C@H]2[C@]2(O)O[C@](NC(=O)OCc3ccccc3)(C(C)C)C(=O)N12 [CABA, [2R-(2α, 5α, 10aβ, 10bα)]-[Octahydro-10b-hydroxy-2-(1-methylethyl)-5-(2-methylpropyl)-3,6-dioxo-8H-oxazolo[3,2-a]pyrrolo[2,1-c]pyrazin-2-yl]-carbamic acid] | accumulation of APP-CTFs only when administered at a concentration of 50 μM |  |  | ~100 |
| CN1C[C@H](C(=O)N[C@]2(C)O[C@@]3(O)[C@@H]4CCCN4C(=O)[C@H](Cc4ccccc4)N3C2=O)C[C@@H]2c3cccc4[nH]cc(c34)C[C@H]21 [Dihydro-ergotamine (DHE), dihydroergotamine methanesulfonate salt] |  | - | did not inhibit |  |
| CN1C[C@H](C(=O)N[C@]2(C)O[C@@]3(O)[C@@H]4CCCN4C(=O)[C@H](Cc4ccccc4)N3C2=O)C=C2c3cccc4[nH]cc(c34)C[C@H]21 [Ergotamine, ergotamine tartrate] |  | - | did not inhibit |  |
| CN1C[C@H](CNC(=O)OCc2ccccc2)C[C@@H]2c3cccc4c3c(cn4C)C[C@H]21 [Metergoline, metergoline] |  | - | did not inhibit |  |
| CC[C@@H](CO)NC(=O)[C@@H]1C=C2c3cccc4[nH]cc(c34)C[C@H]2N(C)C1 [Methyl-ergometrine, methylergometrine] |  | - | did not inhibit |  |
| CCCN1C[C@H](CSC)C[C@@H]2c3cccc4[nH]cc(c34)C[C@H]21 [Pergolide, pergolide mesylate salt] |  | - | did not inhibit |  |
| CC(C)C[C@H]1C(=O)N2CCC[C@H]2[C@]2(O)O[C@](NC(=O)[C@@H]3C=C4c5cccc6[nH]cc(c56)C[C@H]4N(C)C3)(C(C)C)C(=O)N12 [α-Ergocryptine, α-ergocryptine] |  | +++ | inhibited |  |
| CCC(C)[C@H]1C(=O)N2CCC[C@H]2[C@]2(O)O[C@](NC(=O)[C@@H]3C[C@@H]4c5cccc6[nH]cc(c56)C[C@H]4N(C)C3)(C(C)C)C(=O)N12 (stereo partly drawn) [β-Dihydro-ergocryptine, β-Dihydroergocryptine] |  | + | inhibited |  |
